Reference: patent publication US7365096B2, “Methods for selectively inhibiting Janus tyrosine kinase 3 (Jak3)” (Board of Regents, The University of Texas System, priority 2002, dated 2008)
“Also recorded” adds a separate entry of the source.

How the values were obtained:
[1] = target: T1, Zap70 (Homo sapiens, UniProt P43403); assay: Kinase substrate phosphorylation (FIG. 9C); type: biochemical; details: 10 or 50 μM
T1 sequence (P43403 1-619): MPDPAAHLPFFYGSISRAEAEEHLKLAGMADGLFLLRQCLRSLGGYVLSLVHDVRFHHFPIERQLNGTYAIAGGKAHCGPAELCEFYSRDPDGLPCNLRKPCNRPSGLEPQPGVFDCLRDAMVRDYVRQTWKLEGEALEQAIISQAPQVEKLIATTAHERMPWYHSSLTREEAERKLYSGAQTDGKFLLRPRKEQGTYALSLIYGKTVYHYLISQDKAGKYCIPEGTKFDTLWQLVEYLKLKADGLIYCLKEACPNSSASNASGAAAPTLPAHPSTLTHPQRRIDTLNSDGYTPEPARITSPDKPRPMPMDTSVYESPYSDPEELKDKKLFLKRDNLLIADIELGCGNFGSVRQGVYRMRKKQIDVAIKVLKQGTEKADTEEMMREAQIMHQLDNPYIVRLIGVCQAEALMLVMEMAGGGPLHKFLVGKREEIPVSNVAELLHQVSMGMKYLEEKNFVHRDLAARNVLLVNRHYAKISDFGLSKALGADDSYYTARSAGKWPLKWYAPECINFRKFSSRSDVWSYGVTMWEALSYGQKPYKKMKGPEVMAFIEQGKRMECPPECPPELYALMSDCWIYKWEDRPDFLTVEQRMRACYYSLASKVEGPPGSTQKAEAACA
Method: (§1) Non-Jak3 mediated NfκB activation by TNF-α was not affected within the same treatment set (lower panel). […] Prolactin [PRL] (+) or (−) indicates whether the cells were stimulated with prolactin with Jak2 activation. Phosphotyrosine Western blots detect Jak2-Stat5 activation but no inhibition by 649641P (NC1153). […] 649641P (NC1153) was tested at 10 (open bars) or 50 μM (filled bars) to block growth factor tyrosine kinases (FGFR3 and PDGFRα), Src family tyrosine kinases (Src, Fyn, Lck, Yes, Zap70) or serine threonine kinases (PKC and PKA) phosphorylation of a substrate. The activity of the control is plotted as a dashed line.
(§2) In FIG. 9A, it can be seen that NC1153 inhibits Jak3 driven transcription factor-Stat5a/b in PHA activated T-cells treated with increasing concentrations of NC1153 in a dose dependent manner as measured via EMSA analysis (upper panel). The lane identified as “cold compete” contains unlabeled probe. However, non-Jak3 mediated NfκB activation (lower panel) by TNF-α was not affected within the same treatment set. […] Rat Nb2 cells were treated with increasing concentration of NC1153 and then stimulated with prolactin. Phosphotyrosine Western blots detect activation but no inhibition by NC1153. […] Activity of the control is plotted as a dashed line.

[2] = target: FGFR3 (Homo sapiens, UniProt P22607); assay: Kinase substrate phosphorylation (FIG. 9C); type: biochemical; details: 10 or 50 μM
Method: as §1, §2

[3] = target: Src (Homo sapiens, UniProt P12931); assay: Kinase substrate phosphorylation (FIG. 9C); type: biochemical; details: 10 or 50 μM
Method: as §1, §2

[4] = target: Fyn (Homo sapiens, UniProt P06241); assay: Kinase substrate phosphorylation (FIG. 9C); type: biochemical; details: 10 or 50 μM
Method: as §1, §2

[5] = target: PDGFRα (Homo sapiens, UniProt P16234); assay: Kinase substrate phosphorylation (FIG. 9C); type: biochemical; details: 10 or 50 μM
Method: as §1, §2

[6] = tested on: PKA; assay: Kinase substrate phosphorylation (FIG. 9C); type: biochemical; details: 10 or 50 μM
Method: as §1, §2

[7] = target: Lck (Homo sapiens, UniProt P06239); assay: Kinase substrate phosphorylation (FIG. 9C); type: biochemical; details: 10 or 50 μM
Method: as §1, §2

[8] = tested on: PKC; assay: Kinase substrate phosphorylation (FIG. 9C); type: biochemical; details: 10 or 50 μM
Method: as §1, §2

[9] = target: Yes (Homo sapiens, UniProt P07947); assay: Kinase substrate phosphorylation (FIG. 9C); type: biochemical; details: 10 or 50 μM
Method: as §1, §2

[10] = tested on: NF-kB; assay: TNF-α-induced NF-kB DNA binding, EMSA; type: cell-based, human; details: same treatment set
Method: EMSA. Electrophoretic mobility shift assay (EMSA). Drug or vehicle control (DMSO) treated cells were pelleted by centrifugation (20,000×g for 1 min at 4° C.) and subsequently washed in five volumes of 10 mM HEPES, pH 7.9, 10 mM KCl, 1.5 mM MgCl2, 0.5 mM DTT, […], 5 μg/ml aprotinin, 1 μg/ml pepstatin A and 2 μg/ml leupeptin, centrifuged, then lysed in the same buffer supplemented with 1% NP-40 and incubated for 20 min on ice. The nuclei-containing pellet was resuspended in equal volumes of low salt buffer (10 mM HEPES, 25% glycerol, 1.5 mM MgCl2, 20 mM KCl, 0.5 mM DTT, 0.2 mM EDTA and protease inhibitors) and high salt buffer (low salt buffer containing 800 mM KCl). This fraction was then isolated by centrifugation at 4° C. for 10 min and supernatants saved as nuclear protein extract and stored at −70° C. Gel mobility shift assays were performed to detect Stat5a/b DNA binding activity using a Stat5 DNA binding sequence corresponding to the promoter of the β-casein gene (5′-[…]-3′) or an NF-kB binding element (5′-[…]-3′). Both probes were end-labeled with [^32P]dATP. […]
In FIG. 9A, it can be seen that NC1153 inhibits Jak3 driven transcription factor-Stat5a/b in PHA activated T-cells treated with increasing concentrations of NC1153 in a dose dependent manner as measured via EMSA analysis (upper panel). […]

Chain of Lck (P06239 whole entry, species assumed): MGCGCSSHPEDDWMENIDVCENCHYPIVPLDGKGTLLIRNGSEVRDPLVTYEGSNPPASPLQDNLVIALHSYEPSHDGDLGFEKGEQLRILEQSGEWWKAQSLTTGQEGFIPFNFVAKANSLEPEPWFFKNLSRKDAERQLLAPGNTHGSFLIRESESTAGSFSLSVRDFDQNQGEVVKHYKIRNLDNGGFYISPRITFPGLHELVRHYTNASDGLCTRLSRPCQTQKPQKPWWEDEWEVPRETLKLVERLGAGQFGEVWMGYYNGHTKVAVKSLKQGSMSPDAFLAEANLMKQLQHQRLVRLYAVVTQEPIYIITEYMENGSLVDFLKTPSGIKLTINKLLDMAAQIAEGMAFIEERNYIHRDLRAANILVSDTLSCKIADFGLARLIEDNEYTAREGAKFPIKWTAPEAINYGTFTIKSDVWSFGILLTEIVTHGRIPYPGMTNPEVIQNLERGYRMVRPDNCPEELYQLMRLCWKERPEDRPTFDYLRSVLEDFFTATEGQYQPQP
Chain of Src (P12931 whole entry, species assumed): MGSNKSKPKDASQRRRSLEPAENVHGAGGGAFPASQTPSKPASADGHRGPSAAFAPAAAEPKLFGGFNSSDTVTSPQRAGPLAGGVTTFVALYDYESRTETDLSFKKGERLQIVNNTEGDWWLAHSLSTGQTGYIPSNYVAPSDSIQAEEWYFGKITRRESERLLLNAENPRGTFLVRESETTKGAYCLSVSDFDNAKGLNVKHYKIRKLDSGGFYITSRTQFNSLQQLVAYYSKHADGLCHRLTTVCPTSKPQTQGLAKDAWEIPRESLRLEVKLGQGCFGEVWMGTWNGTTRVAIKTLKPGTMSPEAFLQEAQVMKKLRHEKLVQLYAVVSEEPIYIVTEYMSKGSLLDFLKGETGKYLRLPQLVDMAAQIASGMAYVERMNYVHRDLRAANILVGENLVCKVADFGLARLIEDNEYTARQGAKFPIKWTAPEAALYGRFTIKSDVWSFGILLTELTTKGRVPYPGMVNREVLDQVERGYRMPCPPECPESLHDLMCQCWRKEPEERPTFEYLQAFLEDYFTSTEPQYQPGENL
Chain of PDGFRα (P16234 24-1089, species assumed): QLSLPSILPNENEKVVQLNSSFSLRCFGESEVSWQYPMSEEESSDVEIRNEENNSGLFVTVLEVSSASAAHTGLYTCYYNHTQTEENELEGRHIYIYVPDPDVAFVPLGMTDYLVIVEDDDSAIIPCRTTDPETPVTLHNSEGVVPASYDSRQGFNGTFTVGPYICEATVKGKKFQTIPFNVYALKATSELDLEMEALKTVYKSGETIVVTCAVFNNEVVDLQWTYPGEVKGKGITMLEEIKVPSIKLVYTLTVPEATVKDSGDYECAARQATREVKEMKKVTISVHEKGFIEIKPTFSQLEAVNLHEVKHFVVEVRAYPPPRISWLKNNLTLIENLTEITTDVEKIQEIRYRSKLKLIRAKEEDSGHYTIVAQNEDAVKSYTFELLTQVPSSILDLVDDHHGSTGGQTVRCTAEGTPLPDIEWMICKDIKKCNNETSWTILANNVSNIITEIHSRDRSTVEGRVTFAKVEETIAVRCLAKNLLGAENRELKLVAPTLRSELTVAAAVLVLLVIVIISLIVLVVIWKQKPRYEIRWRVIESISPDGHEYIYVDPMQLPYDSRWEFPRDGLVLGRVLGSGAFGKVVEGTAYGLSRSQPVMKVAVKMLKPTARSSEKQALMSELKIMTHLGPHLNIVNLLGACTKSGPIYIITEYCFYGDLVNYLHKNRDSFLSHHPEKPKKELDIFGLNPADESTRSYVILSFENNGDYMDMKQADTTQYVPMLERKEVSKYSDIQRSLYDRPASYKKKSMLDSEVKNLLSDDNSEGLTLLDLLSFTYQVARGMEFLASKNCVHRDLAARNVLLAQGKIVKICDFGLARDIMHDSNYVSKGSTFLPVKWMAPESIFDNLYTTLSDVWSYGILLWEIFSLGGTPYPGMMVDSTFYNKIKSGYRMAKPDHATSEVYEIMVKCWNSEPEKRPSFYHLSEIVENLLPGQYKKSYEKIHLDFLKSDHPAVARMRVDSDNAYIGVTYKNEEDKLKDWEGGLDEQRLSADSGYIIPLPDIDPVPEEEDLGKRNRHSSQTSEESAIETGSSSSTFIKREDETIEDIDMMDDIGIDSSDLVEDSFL
Chain of Fyn (P06241 whole entry, species assumed): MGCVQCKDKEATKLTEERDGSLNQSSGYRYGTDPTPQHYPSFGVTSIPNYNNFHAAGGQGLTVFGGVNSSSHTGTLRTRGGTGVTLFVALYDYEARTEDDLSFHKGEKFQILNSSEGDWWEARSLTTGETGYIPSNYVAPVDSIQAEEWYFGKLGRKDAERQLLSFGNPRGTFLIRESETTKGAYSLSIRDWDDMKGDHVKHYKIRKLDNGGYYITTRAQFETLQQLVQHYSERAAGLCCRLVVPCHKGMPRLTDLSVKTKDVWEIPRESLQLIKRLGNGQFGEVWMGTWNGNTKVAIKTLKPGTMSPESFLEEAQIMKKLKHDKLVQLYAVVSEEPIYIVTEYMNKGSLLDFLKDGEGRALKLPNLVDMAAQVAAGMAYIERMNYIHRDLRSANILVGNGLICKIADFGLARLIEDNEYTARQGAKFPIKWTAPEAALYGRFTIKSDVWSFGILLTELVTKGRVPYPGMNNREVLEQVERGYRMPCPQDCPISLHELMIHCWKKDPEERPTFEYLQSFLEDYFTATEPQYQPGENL
Chain of Yes (P07947 whole entry, species assumed): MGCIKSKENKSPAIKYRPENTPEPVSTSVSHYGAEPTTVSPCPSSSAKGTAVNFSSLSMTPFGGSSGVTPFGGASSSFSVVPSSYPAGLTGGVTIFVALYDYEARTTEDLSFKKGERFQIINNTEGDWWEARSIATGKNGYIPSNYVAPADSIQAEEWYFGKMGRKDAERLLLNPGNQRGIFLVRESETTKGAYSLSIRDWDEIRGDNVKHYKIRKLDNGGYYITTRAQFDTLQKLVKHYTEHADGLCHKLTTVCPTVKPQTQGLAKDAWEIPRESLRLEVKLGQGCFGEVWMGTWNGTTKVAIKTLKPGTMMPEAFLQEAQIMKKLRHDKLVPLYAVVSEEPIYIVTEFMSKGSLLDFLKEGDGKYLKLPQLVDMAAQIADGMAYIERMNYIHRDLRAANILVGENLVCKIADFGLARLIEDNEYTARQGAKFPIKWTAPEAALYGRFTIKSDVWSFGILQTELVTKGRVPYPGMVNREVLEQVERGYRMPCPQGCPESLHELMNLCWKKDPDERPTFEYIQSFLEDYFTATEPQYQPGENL
Chain of FGFR3 (P22607 23-806, species assumed): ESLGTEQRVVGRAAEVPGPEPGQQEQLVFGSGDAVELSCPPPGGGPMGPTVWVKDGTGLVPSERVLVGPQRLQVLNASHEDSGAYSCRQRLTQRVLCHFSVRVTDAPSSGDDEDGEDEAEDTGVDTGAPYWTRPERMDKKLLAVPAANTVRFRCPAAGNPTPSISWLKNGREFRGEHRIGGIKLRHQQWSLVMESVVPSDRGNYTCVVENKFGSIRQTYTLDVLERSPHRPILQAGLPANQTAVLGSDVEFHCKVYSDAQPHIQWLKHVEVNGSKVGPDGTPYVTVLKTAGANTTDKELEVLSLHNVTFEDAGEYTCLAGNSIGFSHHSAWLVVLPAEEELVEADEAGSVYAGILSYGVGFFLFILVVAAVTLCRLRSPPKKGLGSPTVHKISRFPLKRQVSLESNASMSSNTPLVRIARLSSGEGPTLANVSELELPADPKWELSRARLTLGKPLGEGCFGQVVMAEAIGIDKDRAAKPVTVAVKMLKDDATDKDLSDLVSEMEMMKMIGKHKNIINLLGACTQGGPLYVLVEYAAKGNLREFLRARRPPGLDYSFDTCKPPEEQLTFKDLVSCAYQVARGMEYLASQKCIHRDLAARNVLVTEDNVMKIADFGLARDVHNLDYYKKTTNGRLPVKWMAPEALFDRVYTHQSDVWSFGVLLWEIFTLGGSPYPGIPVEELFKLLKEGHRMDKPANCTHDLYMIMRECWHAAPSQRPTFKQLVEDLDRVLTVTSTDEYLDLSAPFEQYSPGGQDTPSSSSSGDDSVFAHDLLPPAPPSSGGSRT

CN(C)CC1CCCCCCCCCC(CN(C)C)C1=O (mixture of isomers) [649641P (NC1153)]
Zap70 phosphorylation of a substrate [1]: fails to affect the activity | Zap70 phosphorylation of a substrate ([1]; listed as NC1153): fails to affect activity | FGFR3 phosphorylation of a substrate [2]: fails to affect the activity | FGFR3 phosphorylation of a substrate ([2]; listed as NC1153): fails to affect activity | Src phosphorylation of a substrate [3]: fails to affect the activity | Src phosphorylation of a substrate ([3]; listed as NC1153): fails to affect activity | Fyn phosphorylation of a substrate [4]: fails to affect the activity | Fyn phosphorylation of a substrate ([4]; listed as NC1153): fails to affect activity | PDGFRα phosphorylation of a substrate [5]: fails to affect the activity | PDGFRα phosphorylation of a substrate ([5]; listed as NC1153): fails to affect activity | PKA phosphorylation of a substrate [6]: fails to affect the activity | PKA phosphorylation of a substrate ([6]; listed as NC1153): fails to affect activity | Lck phosphorylation of a substrate [7]: fails to affect the activity | Lck phosphorylation of a substrate ([7]; listed as NC1153): fails to affect activity | PKC phosphorylation of a substrate [8]: fails to affect the activity | PKC phosphorylation of a substrate ([8]; listed as NC1153): fails to affect activity | Yes phosphorylation of a substrate [9]: fails to affect the activity | Yes phosphorylation of a substrate ([9]; listed as NC1153): fails to affect activity | NF-kB activation / DNA binding by TNF-α (EMSA) [10]: not affected; also recorded: no effect | NF-kB activation / DNA binding by TNF-α (EMSA) ([10]; listed as NC1153): not affected
